# Results published in publication PMC7369637, “Inhibition of Resistance-Refractory P. falciparum Kinase PKG Delivers Prophylactic, Blood Stage, and Transmission-Blocking Antiplasmodial Activity” (Cell Chemical Biology, 2020).
# Entries after “also recorded” stand apart in the source; their conditions may differ. Like-named read-outs stand apart in the source and are kept apart here.
# Tests used:
# Assay type in all cases: cell-based, Plasmodium falciparum
# [1] = tested on: 3D7-A10 parasites (rings, trophozoites, schizonts); test: ABS stage-specific 8-h exposure assay on highly synchronized parasites; conditions: for IC50: 3D7-A10, 8 h exposure
# Procedure: Synchronicity was achieved using three rounds of sorbitol treatment on early rings, spaced 48 h apart, followed by magnetic purification of segmented schizonts following the final sorbitol treatment. Parasites were highly synchronous to within a 3 h window of development. Assays were repeated on at least three independent occasions (each with technical duplicates) and statistical significance was assessed using Mann Whitney U tests.
# Pf NF54 female gametes = test: Dual gamete formation assay, female gamete formation; conditions: carry-over and wash-out
# Procedure: Pf NF54 gametocytes were generated as reported elsewhere ([Delves et al., 2016]). Briefly, static cultures of unsynchronized asexual parasites were continuously maintained as above. Parasites were cultured at 1% ring-stage parasitemias and 4% (v/v) hematocrit prior to the induction of gametocytes. To prepare gametocytes, 75% of the media was replaced daily for 14 subsequent days without adding fresh RBCs. During this process the temperature was kept strictly constant, as the rate of exflagellation is highly temperature-dependent. Between days 1 and 4 after culture induction, the asexual parasitemias increased rapidly to a peak. By day 7, as the asexual population waned, early-stage gametocytes became observable. By day 8, gametocyte maturation had progressed, and by day 14 morphologically distinguishable, mature stage V male and female gametocytes were present. […] Control reactions contained DMSO or 20 μM methylene blue (as negative and positive controls, respectively). […] After imaging, the plate was incubated at 18°C for a further 24 h to allow female gametes to maximally express Pfs25, followed by fluorescence microscopy imaging using a 10× objective. Both time lapse images of exflagellation and fluorescence images of female gametes were automatically quantified using custom scripts in ICY BioImage Analysis ([Delves et al., 2016]).
# AAT cKD line = test: Compound susceptibility assay using cKD lines (72 h, Renilla luciferase); conditions: for IC50: Plasmodium falciparum, AAT cKD line
# Source text: (§1) To study the interaction between the compounds and PKG (PF3D7_1436600), AAT (PF3D7_1231400), CDPK1 (PF3D7_0217500), TKL3 (PF3D7_1349300), PP1 (PF3D7_1414400), and URP (PF3D7_0808300), cKD lines were generated by fusing the transcripts with RNA aptamers for translation regulation with the TetR/DOZI system ([Ganesan et al., 2016]). The right homology regions (RHR) of each target gene were amplified by PCR, using the primers listed in Table S1 (A), and along with the left homology regions (LHR) were fused to the re-codonized 3'-end region of the gene. Single guide RNA fragments were synthesized using the BioXP™ 3200 System (SGI-DNA; Table S1 (A)) and were cloned into the pSN054 vector ([Nasamu et al., 2019]) to install the C-terminal epitope tags V5 and 2x-hemagglutinin (HA) followed by a 10x RNA aptamer array and the TetR-DOZI expression cassette. This cassette also contained Blasticidin S-deaminase for selection in the parasites and the reporter gene Renilla luciferase (RLuc). The 3'-end of each target was re-codonized to avoid further modifications of the edited locus in the parasite via removal of the PAM site. Donor vector generation was carried out via Gibson assembly, and the final construct sequence was confirmed by restriction digests and Sanger sequencing.
# (§2) Transfection into parasites was carried out by preloading erythrocytes with linearized vectors as described previously ([Deitsch et al., 2001]). Briefly, 50 μg of purified plasmid DNA was mixed with human RBC and subjected to 8 square wave electroporation pulses of 365 V for 1 ms each, separated by 0.1 s in a 0.2 cm cuvette. The plasmid DNA preloaded cells were inoculated with NF54 parasites expressing Cas9 and T7 RNA polymerase, maintained in 500 nM anhydrotetracycline (aTc, Sigma-Aldrich 37919), and drug selection with 2.5 μg/mL of Blasticidin (RPI Corp B12150-0.1) was initiated four days after transfection. Emergence of transfectants was monitored via Giemsa smears and RLuc measurements.
# (§3) Synchronized ring-stage cKD parasites in varying aTc concentrations (high = 50 nM, intermediate = 1.5 nM, low = 1 nM, and no aTc) were distributed into the drug plate. No-drug treatment and treatment with a lethal dose of chloroquine (200 nM) served as reference controls.
# CDPK1 cKD line = test: as above; conditions: for IC50: Plasmodium falciparum, CDPK1 cKD line
# Source text: as §1, §2, §3
# PKG cKD line = test: as above; conditions: for IC50: Plasmodium falciparum, PKG cKD line
# Source text: as §1, §2, §3
# PP1 cKD line = test: as above; conditions: Plasmodium falciparum
# Source text: as §1, §2, §3
# TKL3 cKD line = test: as above; conditions: for IC50: Plasmodium falciparum, TKL3 cKD line
# Source text: as §1, §2, §3
compound,measurement,setting,value
CC(C)(CN)c1nc(-c2ccc(Cl)c(O)c2)c(-c2ccncc2)[nH]1 [MMV030084],IC50,"[1]; first shift of biphasic curve, read-out: Mean IC50, schizont biphasic shift 1",95.6 nM
same,IC50,"[1]; second shift of biphasic curve, read-out: Mean IC50, schizont activity shift 2",3930 nM
same,IC50,"[1]; read-out: Mean IC50, late ring stage activity",5870 nM
same,Survival at plateau phase of biphasic schizont curve,"[1]; 3D7-A10 schizonts, 8 h exposure",~ 58%
same,IC50,"[1]; Plasmodium falciparum, 3D7, 8 h, early and late rings averaged, read-out: Average IC50, rings",5560 nM
same,IC50,"[1]; Plasmodium falciparum, 3D7, 8 h, early and late trophozoites averaged, read-out: Average IC50, trophozoites",3250 nM
same,IC50,"[1]; Plasmodium falciparum, 3D7, 8 h, first shift of biphasic curve, read-out: Mean IC50, schizont biphasic shift 1",96 nM
same,IC50,"[1]; Plasmodium falciparum, 3D7, 8 h, second shift of biphasic curve, read-out: Mean IC50, schizont activity shift 2",3930 nM
same,IC50,"[1]; Plasmodium falciparum, 3D7, 8 h, read-out: Mean IC50, early ring stage activity",5250 nM
same,IC50,"[1]; Plasmodium falciparum, 3D7, 8 h, read-out: Mean IC50, early trophozoite activity",3220 nM
same,IC50,"[1]; Plasmodium falciparum, 3D7, 8 h, read-out: Mean IC50, late ring stage activity",5870 nM
same,IC50,"[1]; Plasmodium falciparum, 3D7, 8 h, read-out: Mean IC50, late trophozoite activity",3280 nM
same,Activity against female gametes,Pf NF54 female gametes,ambiguous results; also recorded: little to no activity
same,IC50,"AAT cKD line; Control, [aTc] used 50.0",50.6 nM
same,IC50,"AAT cKD line; KD, [aTc] used 0.0",29.8 nM
same,Decrease in IC50 under AAT cKD conditions,AAT cKD line; cKD vs control,1.7 fold
same,IC50,"CDPK1 cKD line; Control, [aTc] used 50.0",45.4 nM
same,IC50,"CDPK1 cKD line; KD, [aTc] used 1.0",41.5 nM
same,Change in susceptibility when CDPK1 was knocked down,CDPK1 cKD line; cKD vs control,No change
same,IC50,"PKG cKD line; Control, [aTc] used 50.0",27.4 nM
same,IC50,"PKG cKD line; KD, [aTc] used 1.0",6.6 nM
same,Sensitization when PKG was knocked down,PKG cKD line; cKD vs control,4.2 fold
same,IC50,"PP1 cKD line; Control, [aTc] used 50.0",39.2 nM
same,IC50,"PP1 cKD line; KD, [aTc] used 1.5",57 nM
same,IC50,"TKL3 cKD line; Control, [aTc] used 50.0",42.4 nM
same,IC50,"TKL3 cKD line; KD, [aTc] used 0.0",88.6 nM
same,Increase in IC50 induced by TKL3 knockdown,TKL3 cKD line; cKD vs isogenic control,2.1 fold
